Holding throughout (assay type): functional, organism-based
The species entered for test [1] is Mus musculus. The test can be described thus: Antiallodynic activity in Swiss Webster mouse assessed as protection against carrageenan-induced tactile allodynia at 30 ug/paw local peripheral pretreatment with compound for 15 mins followed by carrageenan challenge and measured after 6 hrs. The note with it: dose 30.0 µg, time 375.0 min.
For test [2], the system named is Mus musculus. The test can be described thus: Antiinflammatory activity in Swiss Webster mouse assessed as reversal of carrageenan-induced paw edema at 30 ug/paw local peripheral administration pretreated with carrageenan for 6 days followed by compound addition and measured 6 hrs post compound treatment. Particulars: dose 30.0 µg. In general terms: The carrageenan paw model is a standard test of acute inflammation.

The subject of test [3] is Mus musculus. The test is described as follows: Antiinflammatory activity in Swiss Webster mouse assessed as protection against carrageenan-induced paw edema at 30 ug/paw pretreated with l-NAME for 15 mins followed by compound addition and measured after 6 hrs. The note with it: dose 30.0 µg.
In test [4] the test system is Mus musculus. The test is described as follows: Antiinflammatory activity in Swiss Webster mouse assessed as protection against carrageenan-induced paw edema at 30 ug/paw local peripheral pretreatment with compound for 15 mins followed by carrageenan challenge and measured after 6 hrs. The note with it: dose 30.0 µg, time 375.0 min.
For test [5], the species on record is Mus musculus. The test is described as follows: Antiallodynic activity in Swiss Webster mouse assessed as protection against carrageenan-induced tactile allodynia at 30 ug/paw pretreated with flumazenil for 15 mins followed by compound addition and measured after 6 hrs. Particulars: dose 30.0 µg.
Test [6] relates to Mus musculus. The test can be described thus: Antiallodynic activity in local peripheral dosed Swiss Webster mouse assessed as protection against carrageenan-induced tactile allodynia pretreated with compound for 15 mins followed by carrageenan challenge and measured after 6 hrs. The note with it: dose 1-30 µg, time 375.0 min.
Test [7] concerns Mus musculus. The test can be described thus: Antiallodynic activity in Swiss Webster mouse assessed as reversal of carrageenan-induced tactile allodynia at 30 ug/paw local peripheral administration pretreated with carrageenan for 6 days followed by compound addition and measured 6 hrs post compound treatment. The note with it: dose 30.0 µg.
Test [8] concerns Mus musculus. The test is described as follows: Antiinflammatory activity in Swiss Webster mouse assessed as protection against carrageenan-induced paw edema at 30 ug/paw local peripheral administration and measured after 4 to 6 hrs. Particulars: dose 30.0 µg, time 4-6 hrs.
Test [9] has as its system Mus musculus. The test is described as follows: Antiinflammatory activity in Swiss Webster mouse assessed as protection against carrageenan-induced paw edema at 30 ug/paw pretreated with flumazenil for 15 mins followed by compound addition and measured after 6 hrs. Particulars: dose 30.0 µg.
For test [10], the species on record is Mus musculus. The test is described as follows: Antiallodynic activity in Swiss Webster mouse assessed as protection against carrageenan-induced tactile allodynia at 30 ug/paw pretreated with naloxone for 15 mins followed by compound addition and measured after 6 hrs. Particulars: dose 30.0 µg.
Test [11] concerns Mus musculus. The test is described as follows: Antiinflammatory activity in Swiss Webster mouse assessed as protection against carrageenan-induced paw edema at 30 ug/paw pretreated with glibenclamide for 15 mins followed by compound addition and measured after 6 hrs. The note with it: dose 30.0 µg.
Test [12] concerns Mus musculus. The test is described as follows: Antiallodynic activity in hyperglycemic Swiss Webster mouse model of neuropathic pain assessed as reversal of carrageenan-induced tactile allodynia at 30 ug/paw local peripheral administration and measured after 6 hrs. The note with it: dose 30.0 µg.
For test [13], the species on record is Mus musculus. The test is described as follows: Antiallodynic activity in Swiss Webster mouse assessed as protection against carrageenan-induced tactile allodynia at 30 ug/paw pretreated with methiothepin for 15 mins followed by compound addition and measured after 6 hrs. The note with it: dose 30.0 µg.
Test [14] is filed under the species Mus musculus. The test is described as follows: Antiallodynic activity in Swiss Webster mouse assessed as protection against carrageenan-induced tactile allodynia at 30 ug/paw pretreated with l-NAME for 15 mins followed by compound addition and measured after 6 hrs. The note with it: dose 30.0 µg.
Test [15] has as its system Mus musculus. The test can be described thus: Antiallodynic activity in it dosed Swiss Webster mouse assessed as protection against carrageenan-induced tactile allodynia.
The subject of test [16] is Mus musculus. The test is described as follows: Antiinflammatory activity in Swiss Webster mouse assessed as protection against carrageenan-induced paw edema at 3 to 30 ug/paw local peripheral pretreatment with compound for 15 mins before carrageenan challenge and measured every 3 days for 15 days. The note with it: dose 3-30 µg, time 15.0 day.
For test [17], the system named is Mus musculus. The test is described as follows: Antiinflammatory activity in Swiss Webster mouse assessed as protection against carrageenan-induced paw edema at 30 ug/paw pretreated with methiothepin for 15 mins followed by compound addition and measured after 6 hrs. Particulars: dose 30.0 µg.
The subject of test [18] is Mus musculus. The test can be described thus: Antiallodynic activity in it dosed hyperglycemic Swiss Webster mouse model of neuropathic pain assessed as reversal of carrageenan-induced tactile allodynia measured after 6 hrs. The note with it: dose 3-30 µg.
The subject of test [19] is Mus musculus. The test is described as follows: Antiallodynic activity in local peripheral dosed hyperglycemic Swiss Webster mouse model of neuropathic pain assessed as reversal of carrageenan-induced tactile allodynia measured after 6 hrs. The note with it: dose 3-30 µg.
The subject of test [20] is Mus musculus. The test can be described thus: Antiinflammatory activity in Swiss Webster mouse assessed as protection against carrageenan-induced paw edema at 30 ug/paw, it. Particulars: dose 30.0 µg.
For test [21], the species on record is Mus musculus. The test is described as follows: Antiallodynic activity in hyperglycemic Swiss Webster mouse model of neuropathic pain assessed as reversal of carrageenan-induced tactile allodynia at 30 ug/paw, it and measured after 6 hrs. The note with it: dose 30.0 µg.
In test [22] the test system is Mus musculus. The test is described as follows: Antiinflammatory activity in Swiss Webster mouse assessed as protection against carrageenan-induced paw edema at 30 ug/paw pretreated with naloxone for 15 mins followed by compound addition and measured after 6 hrs. The note with it: dose 30.0 µg.
Test [23] deals with Mus musculus. The test is described as follows: Antiinflammatory activity in local peripheral dosed Swiss Webster mouse assessed as protection against carrageenan-induced paw edema pretreated with compound for 15 mins followed by carrageenan challenge and measured after 6 hrs. The note with it: dose 1-30 µg, time 375.0 min.
Test [24] is filed under the species Mus musculus. The test can be described thus: Antiallodynic activity in Swiss Webster mouse assessed as protection against carrageenan-induced tactile allodynia at 30 ug/paw pretreated with ODQ for 15 mins followed by compound addition and measured after 6 hrs. The note with it: dose 30.0 µg.
Test [25] is filed under the species Mus musculus. The test is described as follows: Antiallodynic activity in Swiss Webster mouse assessed as protection against carrageenan-induced tactile allodynia at 30 ug/paw pretreated with glibenclamide for 15 mins followed by compound addition and measured after 6 hrs. Particulars: dose 30.0 µg.
The subject of test [26] is Mus musculus. The test is described as follows: Antiinflammatory activity in Swiss Webster mouse assessed as protection against carrageenan-induced paw edema at 30 ug/paw pretreated with ODQ for 15 mins followed by compound addition and measured after 6 hrs. The note with it: dose 30.0 µg.
The test system of test [27] is Mus musculus. The test is described as follows: Antiallodynic activity in local peripheral dosed Swiss Webster mouse assessed as protection against carrageenan-induced tactile allodynia measured every 3 days for 15 days. Particulars: dose 3-30 µg, time 15.0 day.

Our source for the Activity values is ChEMBL document CHEMBL4837182, “Pharmacological Analysis of the Anti-inflammatory and Antiallodynic Effects of Zinagrandinolide E from Zinnia grandiflora in Mice” (J Nat Prod, 2021).

Activity calls are given as the source filed them. The rule behind the calls is not given here.

With `C=C[C@@]1(C)[C@H]2OC(=O)C(=C)[C@H]([C@@H]2OC(=O)/C(C)=C\C)[C@H](OC(=O)C(C)C)[C@@H]1C(=C)C(=O)O`, the outcome in the test listed under Mus musculus [1], in the test with Mus musculus [2], in the test on Mus musculus [4], with Mus musculus [7], in the test with Mus musculus [8] and with Mus musculus [12] was Active. The outcome in the test filed under Mus musculus [21] was Active. Besides, the result in the test on Mus musculus [3], in the test listed under Mus musculus [5], with Mus musculus [9], in the test listed under Mus musculus [10], in the test with Mus musculus [11] and in the test listed under Mus musculus [13] was inactive. Further, the outcome in the test listed under Mus musculus [14], in the test with Mus musculus [16], with Mus musculus [17], with Mus musculus [20], with Mus musculus [22] and in the test filed under Mus musculus [24] was inactive. In addition, the outcome in the test filed under Mus musculus [25] and in the test with Mus musculus [26] was inactive. For the same compound, the Activity result in the test on Mus musculus [6], in the test on Mus musculus [15], in the test with Mus musculus [18], in the test with Mus musculus [19], in the test with Mus musculus [23] and with Mus musculus [27] was “Dose-Dependent Effect” each time.
For the compound `CC(C)C[C@H](CN)CC(=O)O`, in the test on Mus musculus [12], the result was inactive. In the test listed under Mus musculus [21], the outcome was Active.
Consider `O=C(O)Cc1ccccc1Nc1c(Cl)cccc1Cl`, for which the result in the test filed under Mus musculus [1], with Mus musculus [4] and in the test with Mus musculus [8] was Active. In addition, the result in the test with Mus musculus [2] and in the test on Mus musculus [7] was inactive.
